# Assay results published in US5747482A, “Methods and compositions to inhibit keratinocyte proliferation” (priority 1996, dated 1998).
# Read-outs that look alike come from different tables or passages of the source.
# Tests used:
# [1] = tested on: Adult human keratinocytes; experiment: Keratinocyte growth inhibition (crystal violet staining; confirmatory hexosaminidase activity), Example 2; type: cell-based
# From the text: Adult human keratinocytes from pooled donor skin were obtained from commercial sources (Cascade Biologics, Portland, Oreg., U.S.A.) and placed in 150 cm^2 bottom area culture flasks using culture medium 154 supplemented with HKGS (about 1%). At 80% confluency, cells were harvested with trypsin and cryopreserved until required. At the start of the experiments, the required number of vials of keratinocytes was thawed, and the keratinocytes were placed in culture in 24 well plates at about 2,500 cells/cm^2 using the same culture medium as described above. After 24 hours (to allow attachment), the medium was changed to fresh 154 supplemented with HKGS (about 1%) and gallium maltol. Specifically, the fresh medium was prepared by addition of a sufficient amount of a stock solution to provide for six different compositions having a final gallium concentration of 10^-4 M, 10^-5 M, 10^-6 M, 10^-8 M, 10^-10 M, and 10^-12 M. The stock solution was prepared by adding 22.25 mg of gallium maltol to 50 mL of 154 medium and then passing the solution through a 0.2 μm filter and storing at 4° C. Media were replaced every 2 or 3 days. […]
# keratinocyte cells = type: cell-based, human; conditions: below 5×10^-4 M, 24 hours treatment
# From the text: Adult human keratinocytes from pooled donor skin were obtained from commercial sources (Cascade Biologics, Portland, Oreg., U.S.A.) and placed in 150 cm^2 bottom area culture flasks using culture medium 154 supplemented with HKGS (about 1%). At 80% confluency, cells were harvested with trypsin and cryopreserved until required.
# The induction of apoptosis is a critical feature in the programmed cell death as it relates to disease conditions such as cancer, psoriasis, etc. where the uncontrolled proliferation of "immortal" cells such as keratinocytes is a causative feature of the disease. This example compares the ability of gallium maltol to induce apoptosis as compared to negative control (no gallium maltol), and positive control (CAM--an agent known to strongly induce apoptosis). The ability for gallium maltol to effect apoptosis was also measured by the inhibitory effect of ATA.
# Specifically, keratinocyte cells were grown using medium 154 in 24 well plates seed with 2,500 cells/cm^2 as described above. Cultures were continued for 3 or 6 days when the cells had achieved about 20 or 60% confluence respectively. On these 2 occasions, media were aspirated from groups of 3 or 4 wells and replaced with high Ca^+2 medium either without supplement or with one of the following supplements:
# 1. Gallium maltol at a final concentration of one of the following: (a) 5×10^-4 M, (b) 1×10^-4 M, (c) 5×10^-5 M, (d) 1×10^-5 M, and (e) 1×10^-6 M;
# 4. As in (3) plus CAM at 1×10^-5 or 1×10^-6 M; and
# 5. As in (3) plus gallium maltol at 1×10^-4 or 2.5×10^-4 M;
# Culture was renewed for a further 24 hours. At this time, media were removed and discarded, and the cells lysed with 200 μL/well of the solution provided in the Cell Death Detection Kit ELISA Plus (Boehringer Mannheim Biochemicals, Indianapolis, Ind., U.S.A., catalogue number 1774425). Aliquots of the lysate (20 μL) from each of 2 or 3 wells were assayed for nucleosomal enrichment following the kit instructions.
structure (smiles),measurement,setting,value
"Cc1occc(=O)c1[O-].Cc1occc(=O)c1[O-].Cc1occc(=O)c1[O-].[Ga+3] [gallium maltol, neutral 3:1 gallium complex of maltol]",keratinocyte growth reduced as compared to control,"[1]; 10^-4 M, FIG. 1 (crystal violet) and FIG. 2 (hexosaminidase), 100 µM",60 to 90%
same,effect on keratinocyte growth at lower concentrations,"[1]; concentrations below 10^-4 M, FIG. 2 (hexosaminidase)","may, in fact, slightly promote keratinocyte growth"
same,increase in apoptosis at lower concentrations,"keratinocyte cells; cultured 3 days prior, FIG. 5",failed to provide such a significant increase in apoptosis
same,increase in apoptosis at lower concentrations,"keratinocyte cells; cultured 6 days prior, FIG. 6",smaller increases in apoptosis at lower concentrations
